Series [1] relates to D-Amphetamine-induced locomotion. As to the kind of experiment: Pharmacodynamic study in amphetamine-induced locomotion model. The following applies: D-AMPH 1.5 mg/kg IP.
Series [2] in a line: Pharmacokinetic evaluation of prodrugs in rats following intramuscular injection. The series is classed as in vivo, Male Sprague-Dawley rats. Conditions: rat, IM injection, plasma drug concentration; dose (mg/kg) and excipients/formulation differ per table line. On the procedure: Pharmakokinetic Evaluation of Prodrugs in Rats Following Intramuscular Injection
Male Sprague-Dawley rats (Charles River Laboratories, Wilmington, Mass.) were obtained. Approximately 24 rats were used in each study. Rats were approximately 350-375 g at time of arrival. Rats were housed 2 per cage with ad libitum chow and water. Environmental conditions in the housing room: 64-67° F., 30% to 70% relative humidity, and 12:12-h light:dark cycle. All experiments were approved by the institutional animal care and use committee.
Rats were dosed IM by means of a 25 gauge, ⅝ in. needle with 1 cc syringe 0.3 mL suspension was withdrawn from the vial containing the test compound (see Table E). The […] was injected in the muscles of the hind limb after anesthesia with isoflourane. Blood samples were collected via a lateral tail vein after brief anesthesia with Isoflurane. A 27½ G needle and 1 cc syringe without an anticoagulant was used for the blood collection. Approximately […] of whole blood was collected at each sampling time-point of 6 hours, 24 hours and 2, 5, 7, 9, 12, 14, 21, 28, 35 days after administration. Once collected, whole blood was immediately transferred to tubes containing K2 EDTA, inverted 10-15 times and immediately placed on ice. The tubes were centrifuged for 2 minutes at >14,000 g's (11500 RPMs using Eppendorf Centrifuge 5417C, F45-30-11 rotor) at room temperature to separate plasma. Plasma samples were transferred to labeled plain tubes (MICROTAINER®; MFG# BD5962) and stored frozen at <−70° C.
Drug concentrations in plasma samples were analyzed by liquid chromatography-mass spectroscopy using appropriate parameters for each compound. Half-life, volume of distribution, clearance, maximal concentration, and AUC were calculated by using WinNonlin Version 5.2 software.

The mark [3] stands for this setting: PO oral oil solution, 0.66, 10 and 20 mg/rat.
Setting [4] is: PO oral oil solution, at the higher dose of 20 mg.

Five compounds from patent publication US8796276B2, “Heterocyclic compounds for the treatment of neurological and psychological disorders” (Alkermes Pharma Ireland Limited, priority 2009, dated 2014) can be followed below.

On to `CCCCCC(=O)OCN1C(=O)CCc2ccc(OCCCCN3CCN(c4cccc(Cl)c4Cl)CC3)cc21` [Compound 4, (7-(4-(4-(2,3-dichlorophenyl)piperazin-1-yl)butoxy)-2-oxo-3,4-dihydroquinolin-1(2H)-yl)methyl hexanoate], for which, in series [1] (setting [3]), the “dose dependence of inhibition of distance travelled” value is listed as “did not appear to be dose dependent” and the “inhibition of increases in distance traveled caused by D-AMPH” value (shortened to “inhibition of increases”) is listed as “significantly inhibited”.
For the compound `CCCCCCCCCCCC(=O)OCN1C(=O)CCc2ccc(OCCCCN3CCN(c4cccc(Cl)c4Cl)CC3)cc21` [Compound 7, (7-(4-(4-(2,3-dichlorophenyl)piperazin-1-yl)butoxy)-2-oxo-3,4-dihydroquinolin-1(2H)-yl)methyl dodecanoate], the “inhibition of increases” value in series [1] (setting [4]) is “significantly inhibit”.
Take `CCCCCCCCCCCCCC(=O)OCN1C(=O)CCc2ccc(OCCCCN3CCN(c4cccc(Cl)c4Cl)CC3)cc21` [Compound 8, (7-(4-(4-(2,3-dichlorophenyl)piperazin-1-yl)butoxy)-2-oxo-3,4-dihydroquinolin-1(2H)-yl)methyl tetradecanoate]: in series [2], the AUC0-14 was determined as 580.3 ng·days/mL and the AUC0-T stood at 666.1 ng·days/mL.
With `CNC(=O)OCN1C(=O)CCc2ccc(OCCCCN3CCN(c4cccc(Cl)c4Cl)CC3)cc21` [Compound 47, (7-(4-(4-(2,3-dichlorophenyl)piperazin-1-yl)butoxy)-2-oxo-3,4-dihydroquinolin-1(2H)-yl)methyl methylcarbamate], in series [1] (setting [4]), the “inhibition of increases” value is recorded as “significantly inhibit”.
Regarding `CCOC(=O)OCN1C(=O)CCc2ccc(OCCCCN3CCN(c4cccc(Cl)c4Cl)CC3)cc21` [Compound 79, (7-(4-(4-(2,3-dichlorophenyl)piperazin-1-yl)butoxy)-2-oxo-3,4-dihydroquinolin-1(2H)-yl)methyl ethyl carbonate], the AUC0-T in series [2] was found to be 940 ng·days/mL.
